Key:
[1] = tested on: COX-1 expression; experiment: COX-1 mRNA abundance in ipsilateral hippocampus after MCA-O; type: in vivo, mouse; conditions: 1 h MCA-O, 2 h reperfusion, NPD1 0.16 μg/ml infused
Protocol: COX-2 RNA abundance in hippocampus and HN cells. Abundance of human-specific COX-1 and COX-2 RNA message was assayed using RT-PCR as described in Bazan, N. G., and Lukiw, W. J. (2002) J. Biol. Chem. 277, 30359-30367.
To determine COX-1 and COX-2 expression, mRNA abundance in the ipsilateral hippocampus was measured. […] A 3-fold increase of COX-2 was seen due to MCA-O reperfusion (FIG. 7C). The infusion of the precursor DHA as well as its product 10,17S-docosatriene (NPD1) inhibited COX-2 expression by 14% and 52%, respectively.

[2] = tested on: IL-1β-induced HIF-1α activation; experiment: EMSA of HIF-1α in IL-1β-exposed human neural progenitor cells; type: cell-based; conditions: HN progenitor cells; IL-1β 10 ng/ml 3 h
Protocol: Human neural (HN) progenitor cells in primary culture. HN cells were grown to ˜70% confluence (˜50,000 cells per 3.5-cm diameter well) in 6-well COSTAR plates at 37° C., 5% CO2/20% O2/75% N2 in humidified air at 1 atm (normoxic conditions) in NPMM medium (Clonetics CC-4241) supplemented with hFGF, NSF-1, hEGF, GA-1000, as described by the manufacturer (Clonetics, Walkersville, Md.). HN cells tested negative for HIV-1, hepatitis B and C, mycoplasma, bacteria, yeast, and fungi, and positive for the glial and neuronal markers GFAP, MAP2, and β-tubulin III (Clonetics). […]
Electrophoretic mobility-shift assay (EMSA) of human AP1, HIF-1α, NF-κBp50/p65, and STAT-1α. Nuclear protein extracts (NPXTs) were prepared from one to three 3.5 cm-diameter wells of HN cells and quantitated. NPXTs (5 μg) derived from HN cells were incubated with[γ-^32P]-ATP (˜3000 Ci/mmol)-end-labeled AP1, HIF-1α, NF-κκBp50/p65, or STAT-1α consensus and mutant oligonucleotides in 5-μl volumes, reacted for 30 min on ice, analyzed on 5% or 10% acrylamide/90 mM Tris-borate pH 8.4, 1 mM EDTA (TBE) gels, dried onto 2-mm Whatman filter paper at 80° C. for 2 h, and phosphorimaged using a Typhoon Variable Mode Imager (Amersham Pharmacia Biotech, Piscataway, N.J. ).

[3] = tested on: Bik gene expression; experiment: HGU133 GeneChip DNA array in HN cells: Bik; type: cell-based, human; conditions: Aβ42 25 μM, DHA 50 nM or NPD1 50 nM, 18 h, nsc = no significant change
Source text: RNA Isolation and Spectral Quality. Brain tissues were rapidly processed, and total RNA was extracted using Trizol reagent (Invitrogen, Carlsbad, Calif.). Total RNA quality and abundance were profiled using RNA Nano LabChips (Caliper Technologies, Mountainview, Calif.; Agilent Technologies, Palo Alto, Calif.).
Probe Synthesis and GeneChip Hybridization. Biotinylated antisense cRNAs were synthesized from cDNA using the Superscript Choice System (Invitrogen) and Enzo Biorray High Yield RNA Transcript Labeling kits according to the manufacturer's protocols (Affymetrix) and as described in Colangelo, V., Schurr, J., Ball, M. J., Pelaez, R. P., Bazan, N. G., Lukiw, W. J. (2002) J. Neurosci. Res., 70: 462-473; and Lukiw, W. J. (2004) Neurochem. Research, 29: 1287-1297. Probes were hybridized against HU133Av2 GeneChip DNA arrays that interrogate approximately 33,000 full-length […] genes and expressed sequence tag (EST) clusters. […]
GeneChip Data and Statistical Analysis. […] Volcano plots were plotted representing total gene expression patterns as a function of fold-change as compared to expression patterns of age-matched controls as plotted against p, as calculated by an analysis of variance (ANOVA). […] Statistical significance was analyzed using a two-way factorial analysis of variance (p, ANOVA; Statistical Analysis System; SAS Institute, Cary, N.C. ).

[4] = tested on: Bfl-1(A1) protein; experiment: Western analysis of Bfl-1(A1) in HN cells; type: cell-based, human; conditions: 50 nM, p<0.05
Protocol: Western Analysis. Total protein was extracted, and 25 μg of protein was analyzed by Western blots using human Bcl-2, Bfl-1 (A1) and actin antibodies. […] Human specific anti-Bfl-1(A1)[Cat. No. sc-8351] was obtained from Santa Cruz Biotechnology (Santa Cruz, Calif.). For Western analysis, signal-intensity data were gathered by phosphorimaging onto molecular imaging screens (FUJIFILM) for 3-36 h using a Typhoon Molecular Imager system (Amersham Biosciences) as described in Bazan and Lukiw, 2002.
To confirm the above changes in Bcl-2 and Bfl-1(A1), Western analysis was performed using anti-Bcl-2, anti-Bfl-1(A1), and anti-actin primary antibodies (B3170 Sigma Life Science, sc-8351 Santa Cruz, and A2103 Sigma, respectively). The results of the Western analysis confirm up-regulation of Bcl-2 and Bfl-1(A1) anti-apoptotic proteins over actin controls in DHA- and NPD1-treated cells.

[5] = tested on: ARPE-19 cells; experiment: A2E-induced apoptosis in ARPE-19 cells (Hoechst staining); type: cell-based, human; conditions: A2E up to 200 μM
Protocol: To test the ability of NPD1 to inhibit A2E oxidative stress, ARPE-19 cells grown in 6-well plates were transfected by Fugene 6 with NF-κB promoter sequence linked to a luciferase reporter gene and with IκB-EGFP. Promoterless β-galactosidase was co-transfected in ARPE-19 cells to determine the transfection efficiency. Four hours after transfection, cells were washed and further incubated 8 to 10 h before adding inducers. Two different set of cells were used. One set of cells was serum-starved 5 h before the addition of A2E and TNF-α/H2O2, and further incubated for 20-24 h before harvesting. The other set of cells was not serum-starved or further incubated. Luciferase activity was measured. The IκB-EGFP probe was measured by fluorescence confocal microscopy, and Hoechst-positive cells were identified.

CC/C=C\C[C@H](O)\C=C/C=C/C=C/[C@H](O)C/C=C\C/C=C\CCC(=O)O [NPD1, 10,17S-docosatriene]
decrease of COX-1 expression (mRNA) [1]: 19% | effect on IL-1β-induced HIF-1α activation [2]: but not IL-1β-induced HIF-1α activation, was inhibited | Bik gene expression, fold change over untreated controls [3]: nsc | Bfl-1(A1) protein increase over controls, normalized with actin [4]: 5.4 fold | effect on A2E-induced apoptosis [5]: inhibited

— patent publication US20050075398A1, “Neuroprotectin D1 protects against cellular apoptosis, stroke damage, alzheimer's disease and retinal diseases” (priority 2003, published 2005)
